In US9650363B2, “Integrin antagonist conjugates for targeted delivery to cells expressing LFA-1” (Hoffmann-La Roche Inc., priority 2012, dated 2017) one finds IC50 data, which are given here for 2 compounds.

pIC50: −log10 of the molar value.

The target of the assay is sLFA-1/ICAM-1 (Homo sapiens, UniProt P05107+P20701, DEL701-769). Briefly: sLFA-1/ICAM-1 ELISA (inhibition of 5dICAM-Fc binding to coated receptor). The note with it: control compounds; ICAM-1 binding ELISA, sLFA-1 or Mac-1 coated plates. As to the method: • Small molecules equipped with a maleimide functionality were covalently conjugated to the RNA through a thioether linkage. To enable this chemistry, ˜60 mg of the RNA containing the 5′-disulfide linker was reduced in water (5 mL) to the corresponding thiol using 1 mL TCEP (0.5 M in water, obtained from Sigma Aldrich). Once analytical anion exchange HPLC indicated completion of the reaction (˜2 h at room temperature) the RNA was precipitated with 30 mL ethanol/3M NaOAc (pH 5.4) 32:1 (v/v) over night at −20° C. The pellet was collected by centrifugation and used for the subsequent small molecule conjugation. • In a typical conjugation reaction 10 mg RNA was dissolved in 2 mL sodium phosphate buffer (0.1 M, pH 7.0). To this solution the small molecule (0.12 mM) in ACN/NMP 1:1 (v/v) was added over a period of 5 minutes. […] The pellet was collected by centrifugation, dissolved in water and if necessary purified by anion exchange HPLC pursuing the procedure given above. If the conjugate is sufficiently pure the reaction mixture was filtered through a size exclusion column (Sephadex G-25, GE Healthcare). Annealing of Oligoribonucleotides to Generate siRNA • Complementary strands were annealed by combining equimolar RNA solutions. […] Absorbance was measured at 450 nm. […]
Sequence of sLFA-1/ICAM-1 (P20701 26-1090 limits assumed, stated change not applied): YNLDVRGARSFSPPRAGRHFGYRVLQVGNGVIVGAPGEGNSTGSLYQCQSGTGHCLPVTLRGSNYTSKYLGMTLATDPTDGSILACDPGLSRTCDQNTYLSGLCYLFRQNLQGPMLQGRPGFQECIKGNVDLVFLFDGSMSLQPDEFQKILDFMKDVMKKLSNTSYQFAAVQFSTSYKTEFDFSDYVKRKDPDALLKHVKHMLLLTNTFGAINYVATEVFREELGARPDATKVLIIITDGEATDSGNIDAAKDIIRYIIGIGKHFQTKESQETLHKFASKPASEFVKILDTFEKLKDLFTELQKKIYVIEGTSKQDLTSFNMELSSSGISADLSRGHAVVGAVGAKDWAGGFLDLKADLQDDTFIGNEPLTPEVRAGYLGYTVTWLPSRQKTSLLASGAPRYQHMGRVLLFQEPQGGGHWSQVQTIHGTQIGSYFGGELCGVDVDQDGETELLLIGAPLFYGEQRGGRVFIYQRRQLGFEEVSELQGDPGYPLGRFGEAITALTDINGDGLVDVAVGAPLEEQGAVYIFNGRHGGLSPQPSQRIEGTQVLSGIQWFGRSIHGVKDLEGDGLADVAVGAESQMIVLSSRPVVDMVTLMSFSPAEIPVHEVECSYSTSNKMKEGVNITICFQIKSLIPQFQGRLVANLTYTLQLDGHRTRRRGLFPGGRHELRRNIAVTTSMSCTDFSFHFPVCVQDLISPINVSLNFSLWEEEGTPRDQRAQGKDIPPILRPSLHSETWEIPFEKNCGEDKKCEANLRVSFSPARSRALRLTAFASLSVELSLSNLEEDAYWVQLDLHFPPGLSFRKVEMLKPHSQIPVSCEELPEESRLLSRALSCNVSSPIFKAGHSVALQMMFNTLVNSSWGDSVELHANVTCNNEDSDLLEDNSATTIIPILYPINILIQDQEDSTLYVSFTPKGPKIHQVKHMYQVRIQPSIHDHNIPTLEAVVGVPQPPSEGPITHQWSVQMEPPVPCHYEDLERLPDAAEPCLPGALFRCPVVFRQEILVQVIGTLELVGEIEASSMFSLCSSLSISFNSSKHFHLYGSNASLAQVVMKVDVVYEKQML
Sequence of sLFA-1/ICAM-1 (P05107 23-700 limits assumed, stated change not applied): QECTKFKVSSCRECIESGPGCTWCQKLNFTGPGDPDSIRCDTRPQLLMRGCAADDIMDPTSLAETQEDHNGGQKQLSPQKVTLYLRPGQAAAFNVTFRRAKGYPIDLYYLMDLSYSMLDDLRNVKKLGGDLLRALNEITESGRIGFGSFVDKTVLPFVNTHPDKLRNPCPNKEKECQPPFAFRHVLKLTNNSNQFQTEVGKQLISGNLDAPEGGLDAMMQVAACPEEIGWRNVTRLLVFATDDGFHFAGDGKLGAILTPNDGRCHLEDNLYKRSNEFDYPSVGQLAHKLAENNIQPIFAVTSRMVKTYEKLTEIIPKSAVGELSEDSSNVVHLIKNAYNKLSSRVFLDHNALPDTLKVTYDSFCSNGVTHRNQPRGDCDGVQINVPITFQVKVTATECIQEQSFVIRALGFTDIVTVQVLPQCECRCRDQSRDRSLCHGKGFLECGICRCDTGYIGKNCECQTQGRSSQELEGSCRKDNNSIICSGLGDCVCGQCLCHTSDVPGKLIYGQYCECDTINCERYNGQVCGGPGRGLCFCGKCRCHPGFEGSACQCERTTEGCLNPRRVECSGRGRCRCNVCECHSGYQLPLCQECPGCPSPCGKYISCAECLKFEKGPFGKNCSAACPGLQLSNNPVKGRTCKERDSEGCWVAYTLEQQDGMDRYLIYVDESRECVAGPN

With `Cc1cc(C(=O)NCc2cccc(O)c2)cc(C)c1C(=O)N[C@@H](CNC(=O)c1cccs1)C(=O)O` [compound 142], the pIC50 is around 7.43.

Take `O=C(NCc1cccc(O)c1)c1cc(Cl)c(C(=O)N[C@@H](CNC(=O)c2cc(O)cc(O)c2)C(=O)O)c(Cl)c1` [compound 143]: the pIC50 was around 7.96.
